The results in this text go back to patent publication US9193722B2, “Tri-cyclic pyrazolopyridine kinase inhibitors” (Vertex Pharmaceuticals Incorporated, priority 2008, dated 2015).

Type in all cases: biochemical
Assay [1] deals with PKC delta kinase (Homo sapiens, UniProt Q05655). Nature of the assay: PKC delta kinase inhibition, coupled-enzyme (NADH absorbance) assay, Ki. As to conditions: 150 μM ATP, 46 nM PKC delta kinase, 30° C.; read-out: Ki PKC delta. In outline:
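Enzyme and compound pre-equilibrated 10 min at 30° C before adding ATP to 150 μM final. Buffer: HEPES pH 7.5 (100 mM), 10 mM MgCl2, 25 mM NaCl, 0.1 mM EDTA, 0.01% Brij.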

Assay [2] deals with PKC theta kinase (Homo sapiens, UniProt Q04759). Nature of the assay: PKC theta kinase inhibition, coupled-enzyme (NADH absorbance) assay, Ki. As to conditions: 240 μM ATP, 18 nM PKC theta kinase, 30° C. In outline: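 Enzyme and compound equilibrated 10 min at 30 °C before reaction in HEPES pH 7.5 buffer with MgCl2, NaCl, EDTA and Brij. Activity tracked as NADH loss at 340 nm through a coupled system. Initial-rate data fitted by non-linear regression to give Ki.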
Sequence of PKC theta kinase (Q04759 whole entry): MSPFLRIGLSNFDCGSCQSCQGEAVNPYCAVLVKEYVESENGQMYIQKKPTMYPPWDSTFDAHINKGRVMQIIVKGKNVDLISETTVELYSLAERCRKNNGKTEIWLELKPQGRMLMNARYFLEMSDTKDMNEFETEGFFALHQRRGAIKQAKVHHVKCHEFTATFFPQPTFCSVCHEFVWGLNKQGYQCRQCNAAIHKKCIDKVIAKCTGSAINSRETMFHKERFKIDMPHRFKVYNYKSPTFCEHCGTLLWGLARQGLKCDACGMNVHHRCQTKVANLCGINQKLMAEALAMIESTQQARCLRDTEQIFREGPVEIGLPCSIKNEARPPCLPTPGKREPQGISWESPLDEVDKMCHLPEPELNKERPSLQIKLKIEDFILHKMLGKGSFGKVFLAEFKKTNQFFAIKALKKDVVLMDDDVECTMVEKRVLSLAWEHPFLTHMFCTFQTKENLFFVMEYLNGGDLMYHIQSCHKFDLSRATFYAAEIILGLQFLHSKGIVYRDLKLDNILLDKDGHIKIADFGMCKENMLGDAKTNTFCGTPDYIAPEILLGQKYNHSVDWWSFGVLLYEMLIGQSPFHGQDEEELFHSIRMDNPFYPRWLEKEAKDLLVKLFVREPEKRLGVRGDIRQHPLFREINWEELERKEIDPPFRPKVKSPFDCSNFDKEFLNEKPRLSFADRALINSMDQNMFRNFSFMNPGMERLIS

In assay [3] the target is PKC alpha kinase (Homo sapiens, UniProt P17252). Nature of the assay: PKC alpha kinase inhibition, coupled-enzyme (NADH absorbance) assay, Ki. As to conditions: 130 μM ATP, 4.5 nM PKC alpha kinase, 30° C. In outline: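 Ki derived by non-linear regression of initial rates from a coupled assay tracking NADH absorbance at 340 nm over 15 min at 30 °C. ATP was 130 μM final after a 10 min compound–enzyme preincubation in HEPES pH 7.5 buffer with MgCl2, CaCl2, NaCl, EDTA and Brij.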

Sequence of PKC delta kinase (Q05655 whole entry): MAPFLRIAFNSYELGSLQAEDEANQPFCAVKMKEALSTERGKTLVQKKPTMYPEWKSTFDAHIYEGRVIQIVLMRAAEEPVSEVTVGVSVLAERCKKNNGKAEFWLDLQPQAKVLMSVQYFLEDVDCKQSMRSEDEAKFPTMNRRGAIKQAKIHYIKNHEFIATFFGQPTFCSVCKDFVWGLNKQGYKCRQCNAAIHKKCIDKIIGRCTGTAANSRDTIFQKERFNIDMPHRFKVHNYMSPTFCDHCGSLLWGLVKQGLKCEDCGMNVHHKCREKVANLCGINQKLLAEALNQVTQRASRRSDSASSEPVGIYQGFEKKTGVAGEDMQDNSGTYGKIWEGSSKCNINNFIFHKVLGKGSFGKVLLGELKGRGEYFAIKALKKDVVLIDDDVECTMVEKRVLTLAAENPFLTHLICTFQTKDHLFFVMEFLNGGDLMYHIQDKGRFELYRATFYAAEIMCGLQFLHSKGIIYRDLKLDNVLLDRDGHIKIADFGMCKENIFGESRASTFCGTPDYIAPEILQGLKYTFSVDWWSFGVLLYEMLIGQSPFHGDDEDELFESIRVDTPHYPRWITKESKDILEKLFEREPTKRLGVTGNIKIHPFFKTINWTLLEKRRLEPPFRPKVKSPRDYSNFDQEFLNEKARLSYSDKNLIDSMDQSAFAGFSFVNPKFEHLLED

In the case of `CC1(C)CC1(O)C1CN(c2ccc(F)c(-c3n[nH]c4ncccc34)n2)CCN1` (stereo not drawn) [Compound 383], the Ki is over 1250 nM in assay [1], under 500 nM in assay [2] and over 1250 nM in assay [3].

For `CO[C@H]1CN(c2ccc(C(F)(F)F)c(-c3n[nH]c4ncccc34)n2)CC[C@H]1N` [Compound 384], the Ki in assay [1] is over 1250 nM; in assay [2], under 500 nM; in assay [3], over 1250 nM.

As for `CC(C)CC1(C)CN(c2ccc(F)c(-c3n[nH]c4ncccc34)n2)CCC1N` (stereo not drawn) [Compound 385], the Ki in assay [1] is under 500 nM; in assay [2], under 50 nM; in assay [3], under 500 nM.

As to `CC(C)CC1CN(c2ccc(F)c(-c3n[nH]c4ncccc34)n2)CCC1CN` (stereo not drawn) [Compound 386], the figures for the Ki in assay [1], in assay [2] and in assay [3] were under 500 nM, under 50 nM and under 2800 nM, respectively.

Regarding `NCC1CN(c2ccc(F)c(-c3n[nH]c4ncccc34)n2)C1` [Compound 387], the Ki in assay [1] was over 1250 nM; in assay [2] it was under 500 nM; in assay [3], over 1250 nM.

As for `CO[C@H]1CN(c2ccc(F)c(-c3n[nH]c4ncccc34)n2)CC[C@H]1N` [Compound 389], the Ki in assay [1] is under 2800 nM; in assay [2] it was under 500 nM; in assay [3] it was under 2800 nM.

`CC(C)(C(N)C1CCCN(c2ccc(F)c(-c3n[nH]c4ncccc34)n2)C1)C(F)(F)F` (stereo not drawn) [Compound 390]: the figures for the Ki in assay [1], in assay [2] and in assay [3] were over 1250 nM, under 50 nM and over 1250 nM, respectively.

For `CCC(CC)C(N)C1CCCN(c2ccc(F)c(-c3n[nH]c4ncccc34)n2)C1` (stereo not drawn) [Compound 391], the Ki in assay [1] is under 2800 nM; in assay [2], under 50 nM; in assay [3] it was over 1250 nM.

Take `CC(C)(C(N)C1CCCN(c2ccc(F)c(-c3n[nH]c4ncccc34)n2)C1)C(F)(F)F` (stereo not drawn) [Compound 393]: the Ki in assay [1] is under 50 nM; in assay [2], under 1 nM; in assay [3], under 2800 nM.

As for `CC(C)(C(N)C1CCCN(c2ccc(F)c(-c3n[nH]c4ncccc34)n2)C1)C(F)(F)F` (stereo not drawn) [Compound 394], the Ki was over 1250 nM in assay [1], under 500 nM in assay [2] and over 1250 nM in assay [3].

Consider `NCC1CN(c2ccc(F)c(-c3n[nH]c4ncccc34)n2)CCO1` (stereo not drawn) [Compound 395], for which the Ki in assay [1] is over 1250 nM; in assay [2], under 500 nM; in assay [3] it was over 1250 nM.

Regarding `CC(C)CC1(C)C=CCN(c2ccc(C(F)(F)F)c(-c3n[nH]c4ncccc34)n2)C1` (stereo not drawn) [Compound 396], the Ki is over 1250 nM in assay [1], over 700 nM in assay [2] and over 1250 nM in assay [3].

For the compound `CC(C)CC1(CN)CN(c2ccc(C(F)(F)F)c(-c3n[nH]c4ncccc34)n2)CCO1` (stereo not drawn) [Compound 397], the Ki is under 500 nM in assay [1], under 500 nM in assay [2] and under 2800 nM in assay [3].

Turning to `NC(=O)C1(N)CCN(c2ccc(C(F)(F)F)c(-c3n[nH]c4ncccc34)n2)CC1` [Compound 398], the Ki was over 1250 nM in assay [1], over 700 nM in assay [2] and over 1250 nM in assay [3].

With `NC(=O)C1(N)CCN(c2ccc(F)c(-c3n[nH]c4ncccc34)n2)CC1` [Compound 399], the Ki was over 1250 nM in assay [1], over 700 nM in assay [2] and over 1250 nM in assay [3].

On to `CC(C)CC1(O)CN(c2ccc(F)c(-c3n[nH]c4ncccc34)n2)CCC1C#N` (stereo not drawn) [Compound 400], for which the Ki in assay [1] is under 2800 nM; in assay [2] it was under 50 nM; in assay [3] it was over 1250 nM.

`CC(C)CC1(O)CN(c2ccc(C(F)(F)F)c(-c3n[nH]c4ncccc34)n2)CCC1C#N` (stereo not drawn) [Compound 401]: the Ki in assay [1] is under 2800 nM; in assay [2], under 50 nM; in assay [3], over 1250 nM.

With `COC(=O)C1(CC(C)C)CN(c2ccc(C(F)(F)F)c(-c3n[nH]c4ncccc34)n2)CCC1N` (stereo not drawn) [Compound 402], the Ki is under 500 nM in assay [1], under 500 nM in assay [2] and over 1250 nM in assay [3].

For the compound `CCC1(CN)CN(c2ccc(C(F)(F)F)c(-c3n[nH]c4ncccc34)n2)CCO1` (stereo not drawn) [Compound 403], the Ki in assay [1] is under 500 nM; in assay [2], under 50 nM; in assay [3], over 1250 nM.

For `CCCC1(CN)CN(c2ccc(C(F)(F)F)c(-c3n[nH]c4ncccc34)n2)CCO1` (stereo not drawn) [Compound 404], the Ki in assay [1] was under 500 nM; in assay [2], under 500 nM; in assay [3] it was under 2800 nM.

As for `CC(C)CC1(C(F)(F)F)CN(c2ccc(C(F)(F)F)c(-c3n[nH]c4ncccc34)n2)CCC1N` (stereo not drawn) [Compound 405], the results for the Ki in assay [1], in assay [2] and in assay [3] were under 500 nM, under 500 nM and over 1250 nM, respectively.

`CCC1CN(c2ccc(C(F)(F)F)c(-c3n[nH]c4ncccc34)n2)CCC1C#N` (stereo not drawn) [Compound 406]: the Ki in assay [1] is over 1250 nM; in assay [2] it was under 500 nM; in assay [3], over 1250 nM.

`CCC1CN(c2ccc(F)c(-c3n[nH]c4ncccc34)n2)CCC1C#N` (stereo not drawn) [Compound 407]: the results for the Ki in assay [1], in assay [2] and in assay [3] were under 2800 nM, under 50 nM and over 1250 nM, respectively.

For `CNC(C1CCCN(c2ccc(F)c(-c3n[nH]c4ncccc34)n2)C1)C(C)(C)C` (stereo not drawn) [Compound 408], the values for the Ki in assay [1], in assay [2] and in assay [3] were over 1250 nM, under 500 nM and over 1250 nM, respectively.

Turning to `CC(C)CC1(CO)CN(c2ccc(C(F)(F)F)c(-c3n[nH]c4ncccc34)n2)CCC1N` (stereo not drawn) [Compound 410], the figures for the Ki in assay [1], in assay [2] and in assay [3] were under 50 nM, under 50 nM and under 500 nM, respectively.

As for `CC(C)CC1(CO)CN(c2ccc(C(F)(F)F)c(-c3n[nH]c4ncccc34)n2)CCC1N` (stereo not drawn) [Compound 411], the results for the Ki in assay [1], in assay [2] and in assay [3] were under 2800 nM, under 500 nM and under 2800 nM, respectively.

Turning to `NCC1CCN(c2cc(C(F)(F)F)cc(-c3n[nH]c4ncccc34)n2)CC1` [Compound 412], the Ki in assay [1] is over 1250 nM; in assay [2], under 500 nM; in assay [3] it was over 1250 nM.

Take `CC(C)CC1(CN)CN(c2ccc(C(F)(F)F)c(-c3n[nH]c4ncccc34)n2)C1` [Compound 413]: the Ki in assay [1] is over 1250 nM; in assay [2], over 700 nM; in assay [3] it was over 1250 nM.

On to `CC(=O)N1CCN(c2ccc(F)c(-c3n[nH]c4ncccc34)n2)CC1C(C)(O)C(C)C` (stereo not drawn) [Compound 414], for which the Ki in assay [1] is over 1250 nM; in assay [2] it was over 700 nM; in assay [3], over 1250 nM.

On to `CCOC(=O)N1CCN(c2ccc(F)c(-c3n[nH]c4ncccc34)n2)CC1C(C)(O)C(C)C` (stereo not drawn) [Compound 418], for which the Ki was over 1250 nM in assay [1], over 700 nM in assay [2] and over 1250 nM in assay [3].

Take `CC(C)CC1CN(c2cc(C(F)(F)F)cc(-c3n[nH]c4ncccc34)n2)CCC1N` (stereo not drawn) [Compound 419]: the Ki in assay [1] was over 1250 nM; in assay [2] it was under 500 nM; in assay [3] it was over 1250 nM.

`NC[C@@H]1CCN(c2cc(C(F)(F)F)cc(-c3n[nH]c4ncccc34)n2)C1` [Compound 420]: the Ki was over 1250 nM in assay [1], under 2800 nM in assay [2] and over 1250 nM in assay [3].

For the compound `CC(C)(C)C(N)C1CCN(c2ccc(F)c(-c3n[nH]c4ncccc34)n2)C1` (stereo not drawn) [Compound 421], the values for the Ki in assay [1], in assay [2] and in assay [3] were under 500 nM, under 50 nM and over 1250 nM, respectively.

`OC1CCCN(c2ccc(C(F)(F)F)c(-c3n[nH]c4ncccc34)n2)C1` (stereo not drawn) [Compound 423]: the Ki in assay [1] is over 1250 nM; in assay [2], over 700 nM; in assay [3], over 1250 nM.

In the case of `CC(C)C(C)(O)C1CN(c2ccc(F)c(-c3n[nH]c4ncccc34)n2)CCN1C(=O)OC(C)(C)C` (stereo not drawn) [Compound 424], the values for the Ki in assay [1], in assay [2] and in assay [3] were over 1250 nM, over 700 nM and over 1250 nM, respectively.

For the compound `CC(C)C(C)(O)C1CN(c2nc(-c3n[nH]c4ncccc34)c(F)cc2F)CCN1` (stereo not drawn) [Compound 425], the Ki was under 50 nM in assay [1], under 1 nM in assay [2] and under 500 nM in assay [3].

In the case of `CC(C)C(C)(O)C1CN(c2cncc(-c3n[nH]c4ncccc34)n2)CCN1` (stereo not drawn) [Compound 426], the values for the Ki in assay [1], in assay [2] and in assay [3] were under 500 nM, under 50 nM and under 2800 nM, respectively.

As to `CCC1(CC)CN(c2ccc(C(F)(F)F)c(-c3n[nH]c4ncccc34)n2)CCC1N` (stereo not drawn) [Compound 427], the Ki was under 500 nM in assay [1], under 50 nM in assay [2] and over 1250 nM in assay [3].

On to `CC1(C)CN(c2ccc(C(F)(F)F)c(-c3n[nH]c4ncccc34)n2)CCC1N` (stereo not drawn) [Compound 428], for which the Ki in assay [1] is under 500 nM; in assay [2], under 500 nM; in assay [3] it was over 1250 nM.

As for `CC(C)CC1(C#N)CN(c2ccc(C(F)(F)F)c(-c3n[nH]c4ncccc34)n2)C1` [Compound 429], the Ki was over 1250 nM in assay [1], over 700 nM in assay [2] and over 1250 nM in assay [3].

Regarding `CC(C)CC1(C(N)=O)CN(c2ccc(C(F)(F)F)c(-c3n[nH]c4ncccc34)n2)C1` [Compound 430], the Ki in assay [1] was over 1250 nM; in assay [2], over 700 nM; in assay [3], over 1250 nM.

Take `FC(F)(F)c1ccc(C2CCNCC2)nc1-c1n[nH]c2ncccc12` [Compound 431]: the Ki in assay [1] was over 1250 nM; in assay [2], over 700 nM; in assay [3], over 1250 nM.
